Reference: EP4603105A1, “PHARMACEUTICAL COMPOSITION CONTAINING CYCLIC COMPOUND HAVING SELECTIVE KRAS INHIBITORY EFFECT AGAINST HRAS AND NRAS” (CHUGAI SEIYAKU KABUSHIKI KAISHA, priority 2022, dated 2024)
Where a SMILES comes first, the peptide text is derived from it. Bridges are numbered along the chain shown (N, C = ends). [ ]: non-standard residue; d: D form. The star is where a group is joined. hPhe(3-Cl-4-CF3) = N[C@@H](CCc1ccc(C(F)(F)F)c(Cl)c1)C(=O)O; NPrPhe(4-CF3) = CCCN[C@@H](Cc1ccc(C(F)(F)F)cc1)C(=O)O; NPrPhe(4-Me) = CCCN[C@@H](Cc1ccc(C)cc1)C(=O)O; Pro(4-spirocPr) = O=C(O)[C@@H]1CC2(CC2)CN1; NMeGly(cPent) = CN[C@H](C(=O)O)C1CCCC1; Pro(4,4-F2) = O=C(O)[C@@H]1CC(F)(F)CN1; Gly(cBu) = N[C@H](C(=O)O)C1CCC1; NMeD = CN[C@@H](CC(=O)O)C(=O)O; NMeL = CN[C@@H](CC(C)C)C(=O)O; Morpholide = C1CN(*)CCO1; Ac5c = NC1(C(=O)O)CCCC1; Aze = O=C(O)[C@@H]1CCN1; Ac4c = NC1(C(=O)O)CCC1; NEtG = CCNCC(=O)O; Sar = CNCC(=O)O

Key:
[1] = tested on: human lung cancer strain NCI-H441; assay type: cell-based
Summary of the method: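 Proliferation was scored by […] measured after the reagent was added to cultures kept at 37°C in 5% carbon dioxide.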

[2] = molecular target: HRAS wild-type protein (Homo sapiens, UniProt P01112); assay: Binding to HRAS by surface plasmon resonance (SPR), KD and KD ratio to KRAS
Summary of the method: (§1)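 Compound binding is evaluated by SPR single-cycle kinetics, with concentrations added intermittently from low to high for 75 s each. Target surfaces carry GDP-loaded biotinylated Avi-RAS at about 100–300 RU, regenerated after each cycle; temperature 30°C. A 1:1 binding model gives KD.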

[3] = molecular target: GDP-bound NRAS wild-type protein (Homo sapiens, UniProt P01111); assay: Binding to NRAS by surface plasmon resonance (SPR), KD and KD ratio to KRAS
Summary of the method: as §1

[4] = ratio of KD for HRAS wild-type protein to KD for KRAS
[5] = ratio of KD for GDP-bound NRAS wild-type protein to KD for KRAS
[6] = ratio of the KD value with respect to HRAS wild-type protein to the KD value with respect to KRAS
[7] = ratio of the KD value with respect to GDP-bound NRAS wild-type protein to the KD value with respect to KRAS
[8] = ratio of KD value for HRAS wild-type protein to KD value for KRAS (SPR)
[9] = ratio of KD value for GDP-bound NRAS wild-type protein to KD value for KRAS (SPR)

Chain of HRAS wild-type protein (P01112 whole entry): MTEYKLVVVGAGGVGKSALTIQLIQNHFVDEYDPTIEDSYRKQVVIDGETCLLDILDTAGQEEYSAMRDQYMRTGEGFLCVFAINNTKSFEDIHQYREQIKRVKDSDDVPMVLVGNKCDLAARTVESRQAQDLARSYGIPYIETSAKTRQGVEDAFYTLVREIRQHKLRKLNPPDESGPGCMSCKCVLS
Chain of GDP-bound NRAS wild-type protein (P01111 whole entry): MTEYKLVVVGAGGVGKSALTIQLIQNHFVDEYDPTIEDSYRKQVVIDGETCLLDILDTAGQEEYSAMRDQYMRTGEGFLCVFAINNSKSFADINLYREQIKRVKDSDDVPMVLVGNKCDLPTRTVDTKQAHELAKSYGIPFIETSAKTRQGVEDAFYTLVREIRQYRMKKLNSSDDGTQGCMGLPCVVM

Structure (SMILES) | IC50 [1] [nM] | HRAS /KRAS [2, 4] | NRAS /KRAS [3, 5] | HRAS /KRAS [2, 6] | NRAS /KRAS [3, 7] | HRAS /KRAS [2, 8] | NRAS /KRAS [3, 9]
CC[C@H](C)[C@@H]1NC(=O)[C@H](CC(C)C)N(C)C(=O)C[C@@H](C)N(C)C(=O)[C@H](C2CCCC2)N(C)C(=O)C2(CCCC2)NC(=O)[C@@H]2CCCN2C(=O)[C@H](CCc2cc(F)c(C(F)(F)F)c(F)c2)NC(=O)CN(C)C(=O)[C@H](Cc2ccc(C(F)(F)F)cc2)N2CC/C=C\C[C@@H](C2=O)N(C)C(=O)CN(C)C1=O [PP1102] | 83.1 | A (a compound having 10 or more and less than 20 is denoted as A) | B (a compound having 3 or more and less than 10 is denoted as B) | – | – | – | –
CCO[C@@H]1C[C@H]2C(=O)NC3(CC(C)(C)C3)C(=O)N(C)[C@@H](C3CCCC3)C(=O)N(C)[C@H](C(=O)N(C)CC)CC(=O)N(C)[C@@H](CC(C)C)C(=O)N[C@@H]([C@@H](C)OCC)C(=O)N(C)CC(=O)N(C)[C@H]3C/C=C\CCN(C3=O)[C@@H](Cc3ccc(C(F)(F)F)cc3)C(=O)N(C)CC(=O)N[C@@H](CCc3cc(F)c(C(F)(F)F)c(F)c3)C(=O)N2C1 [PP1919] | 6.3 | – | – | A (a compound having 10 or more and less than 20 is denoted as A) | A (a compound having 10 or more and less than 20 is denoted as A) | – | –
CCC[C@H]1C(=O)N[C@@H]([C@@H](C)CC)C(=O)N2CCC[C@H]2C(=O)N(C)[C@H]2C/C=C\CCN(C2=O)[C@@H](Cc2ccc(C(F)(F)F)cc2)C(=O)N(C)CC(=O)N[C@@H](CCc2cc(F)c(C(F)(F)F)c(F)c2)C(=O)N2C[C@H](OCC)C[C@H]2C(=O)N(C)C2(CCC2)C(=O)N(C)[C@@H](C2CCCC2)C(=O)N(C)[C@H](C(=O)N2CCCC2)CC(=O)N1C [PP3116] | 7.8 | A (a compound having 10 or more and less than 20 is denoted as A) | A (a compound having 10 or more and less than 20 is denoted as A) | – | – | – | –
CC[C@H](C)[C@@H]1NC(=O)[C@H](CC2CC2)N(C)C(=O)C[C@@H](C(=O)N(C)CC)N(C)C(=O)[C@H](C2CCCC2)N(C)C(=O)C2(CC(C)(C)C2)NC(=O)[C@@H]2C[C@@H](F)CN2C(=O)[C@H](CCc2cc(F)c(C(F)(F)F)c(F)c2)NC(=O)CN(C)C(=O)[C@H](Cc2ccc(C(F)(F)F)cc2)N2CC/C=C\C[C@@H](C2=O)N(C)C(=O)CN(C)C1=O [PP1570] | 2.6 | – | – | – | – | A (a compound having 10 or more and less than 20 is denoted as A) | AA (a compound having 20 or more is denoted as AA)
CCCN1C(=O)CN(C)C(=O)CN(CC)C(=O)[C@H]([C@@H](C)CC)NC(=O)[C@H](CC(C)C)N(C)C(=O)C[C@@H](C(=O)N2CCOCC2)N(C)C(=O)[C@H](C2CCCC2)N(C)C(=O)C2(CCCC2)NC(=O)[C@@H]2CC3(CC3)CN2C(=O)[C@H](CCc2ccc(C(F)(F)F)c(Cl)c2)NC(=O)CN(C)C(=O)[C@@H]1Cc1ccc(C(F)(F)F)cc1 [PP0295] ([NMeL]I[NEtG][Sar][NPrPhe(4-CF3)][Sar][hPhe(3-Cl-4-CF3)][Pro(4-spirocPr)][Ac5c][NMeGly(cPent)][NMeD]-Morpholide; lactam N-11) | 33.2 | C (A compound having a KD ratio of 0.1 or more and less than 3 is denoted as C) | B (a compound having 3 or more and less than 10 is denoted as B) | – | – | – | –
CCC[C@H]1C(=O)N[C@@H]([C@@H](C)CC)C(=O)N(C)CC(=O)N(C)[C@H]2C/C=C\CCN(C2=O)[C@@H](Cc2ccc(C(F)(F)F)cc2)C(=O)N(C)CC(=O)N[C@@H](CCc2ccc(CC)c(Cl)c2)C(=O)N2C[C@H](OCC)C[C@H]2C(=O)NC2(CC(C)(C)C2)C(=O)N(C)[C@@H](C(CC)CC)C(=O)N(C)[C@H](C(=O)N(C)C)CC(=O)N1C [PP2777] | 111 | A (a compound having 10 or more and less than 20 is denoted as A) | AA (a compound having 20 or more is denoted as AA) | – | – | – | –
CCC[C@H]1C(=O)N[C@@H]([C@@H](C)CC)C(=O)N(C)CC(=O)N(C)[C@H]2C/C=C\CCN(C2=O)[C@@H](Cc2ccc(C)cc2)C(=O)N(C)CC(=O)N[C@@H](CCc2cc(F)c(C(F)(F)F)c(F)c2)C(=O)N2C[C@H](OCC)C[C@H]2C(=O)N(C)C2(CCC2)C(=O)N(C)[C@@H](C2CCCC2)C(=O)N(C)[C@H](C(=O)N2CCCC2)CC(=O)N1C [PP3121] | 1.5 | A (a compound having 10 or more and less than 20 is denoted as A) | A (a compound having 10 or more and less than 20 is denoted as A) | – | – | – | –
CCCN1C(=O)CN(C)C(=O)CNC(=O)[C@H]([C@@H](C)CC)NC(=O)[C@H](CC(C)C)N(C)C(=O)C[C@@H](C(=O)N(C)C)N(C)C(=O)[C@H](C2CCCC2)N(C)C(=O)C2(CCC2)NC(=O)[C@@H]2CC(F)(F)CN2C(=O)[C@H](CCc2ccc(C(F)(F)F)c(Cl)c2)NC(=O)CN(C)C(=O)[C@@H]1Cc1ccc(C(F)(F)F)cc1 [PP0420] ([NMeL]IG[Sar][NPrPhe(4-CF3)][Sar][hPhe(3-Cl-4-CF3)][Pro(4,4-F2)][Ac4c][NMeGly(cPent)][NMeD]-NMe2; lactam N-11) | 1.2 | – | – | C (A compound having a KD ratio of 0.1 or more and less than 3 is denoted as C) | B (a compound having 3 or more and less than 10 is denoted as B) | – | –
CCO[C@@H]1C[C@H]2C(=O)NC3(CC(C)(C)C3)C(=O)N(C)[C@@H](CC3CCC3)C(=O)N(C)[C@H](C(=O)N(C)C)CC(=O)N(C)[C@@H](COC)C(=O)N[C@@H]([C@@H](C)CC)C(=O)N(C3CC3)CC(=O)N(C)[C@H]3C/C=C\CCN(C3=O)[C@@H](Cc3ccc(C(F)(F)F)cc3)C(=O)N(C)CC(=O)N[C@@H](CCc3ccc(C(F)(F)F)c(OC)c3)C(=O)N2C1 [PP2771] | 148 | A (a compound having 10 or more and less than 20 is denoted as A) | AA (a compound having 20 or more is denoted as AA) | – | – | – | –
CCCN1C(=O)CN(C)C(=O)[C@@H]2CCN2C(=O)[C@H](C2CCC2)NC(=O)[C@H](CC(C)C)N(C)C(=O)C[C@@H](C(=O)N2CCOCC2)N(C)C(=O)[C@H](C2CCCC2)N(C)C(=O)C2(CCCC2)NC(=O)[C@@H]2CCCN2C(=O)[C@H](CCc2ccc(C(F)(F)F)c(Cl)c2)NC(=O)CN(C)C(=O)[C@@H]1Cc1ccc(C(F)(F)F)cc1 [PP0305] ([NMeL][Gly(cBu)][Aze][Sar][NPrPhe(4-CF3)][Sar][hPhe(3-Cl-4-CF3)]P[Ac5c][NMeGly(cPent)][NMeD]-Morpholide; lactam N-11) | 49.6 | C (A compound having a KD ratio of 0.1 or more and less than 3 is denoted as C) | B (a compound having 3 or more and less than 10 is denoted as B) | – | – | – | –
CCO[C@@H]1C[C@H]2C(=O)NC3(CC(C)(C)C3)C(=O)N(C)[C@@H](C(CC)CC)C(=O)N(C)[C@H](C(=O)N(C)C)CC(=O)N(C)[C@@H](CC)C(=O)N[C@@H]([C@@H](C)CC)C(=O)N(C)CC(=O)N(C)[C@H]3C/C=C\CCN(C3=O)[C@@H](Cc3ccc(C)cc3)C(=O)N(C)CC(=O)N[C@@H](CCc3cc(F)c(C(F)(F)F)c(F)c3)C(=O)N2C1 [PP2147] | 9.7 | – | – | B (a compound having 3 or more and less than 10 is denoted as B) | A (a compound having 10 or more and less than 20 is denoted as A) | – | –
CCO[C@@H]1C[C@H]2C(=O)NC3(CCC3)C(=O)N(C)[C@@H](C3CCCC3)C(=O)N(C)[C@H](C(=O)N3CCC3)CC(=O)N(C)[C@@H](CC)C(=O)N[C@@H]([C@@H](C)CC)C(=O)N(C)CC(=O)N(C)[C@H]3C/C=C\CCN(C3=O)[C@@H](Cc3ccc(C(F)(F)F)cc3)C(=O)N(C)CC(=O)N[C@@H](CCc3cc(F)c(C(F)(F)F)c(F)c3)C(=O)N2C1 [PP1091] | 17.9 | B (a compound having 3 or more and less than 10 is denoted as B) | A (a compound having 10 or more and less than 20 is denoted as A) | – | – | – | –
CCCN1C(=O)CN(C)C(=O)CN(C)C(=O)[C@H]([C@@H](C)CC)NC(=O)[C@H](CC(C)C)N(C)C(=O)C[C@@H](C(=O)N2CCOCC2)N(C)C(=O)[C@H](C2CCCC2)N(C)C(=O)C2(CCCC2)NC(=O)[C@@H]2CCCN2C(=O)[C@H](CCc2ccc(C(F)(F)F)c(Cl)c2)NC(=O)CN(C)C(=O)[C@@H]1Cc1ccc(C)cc1 [PP0059] ([NMeL]I[Sar][Sar][NPrPhe(4-Me)][Sar][hPhe(3-Cl-4-CF3)]P[Ac5c][NMeGly(cPent)][NMeD]-Morpholide; lactam N-11) | 6.1 | C (A compound having a KD ratio of 0.1 or more and less than 3 is denoted as C) | B (a compound having 3 or more and less than 10 is denoted as B) | – | – | – | –
CCCN1C(=O)C[C@@H](C(=O)N(C)C)N(C)C(=O)[C@H](C2CCCC2)N(C)C(=O)C2(CCC2)NC(=O)[C@@H]2C[C@@H](OCC)CN2C(=O)[C@H](CCc2cc(F)c(C(F)(F)F)c(F)c2)NC(=O)CN(C)C(=O)[C@H](Cc2ccc(C(F)(F)F)cc2)N2CC/C=C\C[C@@H](C2=O)N(C)C(=O)CNC(=O)[C@H]([C@@H](C)CC)NC(=O)[C@@H]1CC(C)C [PP1826] | 17.6 | – | – | – | – | A (a compound having 10 or more and less than 20 is denoted as A) | A (a compound having 10 or more and less than 20 is denoted as A)
